The record followed here is paper PMC6496074, “The Evolution of Azole Resistance in Candida albicans Sterol 14α-Demethylase (CYP51) through Incremental Amino Acid Substitutions” (Antimicrobial Agents and Chemotherapy, 2019).

Values after ≈ are worked out from the molar mass of the structure shown.

The term IC50 denotes the concentration needed to halve the response being measured. One may read the Kd as a measure of binding affinity in units of concentration. What is called MIC is the lowest concentration that inhibits growth of the organism.

The target of experiment [1] is T1, CaCYP51 Y118A (Candida albicans, UniProt P10613, Y118A).
T1 construct: made in house; host or cells: E. coli DH5α (pCWori+)
Kind of experiment: CYP51 reconstitution assay. In kind it is biochemical. The settings on record: for IC50: mean ± SD, duplicate; for remaining activity at 4 µM: 0.25 h, 4 μM triazole, % of activity without triazole, read-out: Residual CYP51 activity (%) ± SD. The procedure: Azole antifungal agents were added in 2.5 μl dimethyl sulfoxide, followed by 10 min of incubation at 37°C prior to assay initiation with 4 mM β-NADPH-Na4. The samples were then shaken for 15 min at 37°C. Sterol metabolites were recovered by extraction with ethyl acetate, followed by derivatization with 0.1 ml N,O-bis(trimethylsilyl)trifluoroacetamide (BSTFA)–trimethylchlorosilane (TMCS) (99:1) and 0.3 ml anhydrous pyridine (2 h at 80°C), prior to analysis by gas chromatography-mass spectrometry (GC-MS) ([52]). IC50 determinations were performed in duplicate.

The target of experiment [2] is T2, CaCYP51 Y132H+K143R (Candida albicans, UniProt P10613, K143R/Y132H).
T2 construct: made in house; host or cells: E. coli DH5α (pCWori+)
Nature of the experiment: Azole ligand binding (type II difference spectra). The settings on record: for Kd: 4 μM protein, 22°C, ± standard deviation, triplicate, read-out: dissociation constant (Kd). The protocol:
Studies of azole antifungal binding to 4 μM CaCYP51 proteins were performed as previously described ([53]) using quartz split cuvettes with a 4.5-mm light path. […] Azole antifungals were progressively titrated against the CaCYP51 proteins in 0.1 M Tris-HCl (pH 8.1) and 25% glycerol at 22°C, with equivalent volumes of dimethyl sulfoxide also being added to the CYP51-containing compartment of the reference cuvette. The absorbance difference spectra between 500 and 350 nm were determined after each incremental addition of azole, with binding saturation curves constructed from the change in the peak and trough absorbance (ΔApeak-trough) against the azole concentration. The dissociation constant (Kd) of the enzyme-azole complex for each azole was determined by nonlinear regression (Levenberg-Marquardt algorithm) using a rearrangement of the Morrison equation for tight ligand binding ([54], [55]). Tight binding is normally observed when the Kd for a ligand is similar to or lower than the concentration of the enzyme present ([56]). Where ligand binding was weak, the Michaelis-Menten equation was used to fit the data. Each binding determination was performed in triplicate. The chemical structures of the azole antifungals used in this study are shown in Fig. S5 in the supplemental material.

For experiment [3], the system named is C. albicans SC5314 strain with CaCYP51 substitution Y132H. Nature of the experiment: CLSI broth microdilution MIC. It is filed as cell-based. The conditions noted are these: Candida albicans, RPMI 1640, 24 h, 35°C, 50% reduction in growth. From the text:
(§1) Strains expressing seven single mutations (Y132F, K143R, F145L, S405F, G448E, G450E, G464S) and three double mutations (Y132F+K143R, Y132F+F145L, D278N+G464S) were selected from a previous study ([36]). Two additional strains expressing the Y132H and D278N CYP51 gene mutations were created utilizing the SAT1/FLP cassette described previously ([44]). […] Successful transformants were screened on yeast-peptone-dextrose agar plates containing nourseothricin and confirmed via Southern hybridization. Genomic DNA from nourseothricin-screened transformants was digested with the HindIII restriction enzyme, and the resulting DNA digests were loaded on 1% agarose gels containing ethidium bromide. Digested samples were visualized briefly under UV light after approximately 2 h of electrophoresis (120 V) to confirm appropriate band separation. Lanes containing digested DNA in the gel were transferred onto a nitrocellulose membrane via vacuum suction, and DNA was cross-linked to the membrane through UV exposure. PCR amplification of the genomic DNA from parent isolate SC5314 using primers ERG11_Probe_F (5′-[…]-3′) and ERG11_Probe_R (5′-[…]-3′) generated a 254-bp product, used as a probe for the ERG11 gene locus. The probe was labeled and prepared using an Amersham AlkPhos direct labeling and detection system (GE Life Sciences) and hybridized to the membrane through overnight incubation at 55°C. Bands containing the hybridized, alkaline phosphatase-labeled probe corresponding to either wild-type ERG11 alleles (2,678 bp) or successfully replaced alleles with the SAT1/FLP cassette included (4,318 bp) or recycled (3,119 bp) were visualized with the CDP-Star chemiluminescent detection reagent. To confirm the sequence of the replaced ERG11 allele, a DNA fragment containing the ERG11 ORF and approximately 435 bp upstream of the start codon and 229 bp downstream of the ERG11 stop codon was PCR amplified using primers CaERG11_A_(ApaI) (5′-[…]-3′) and CaERG11_E_(XhoI) (5′-[…]-3′). The resulting DNA fragment was purified and Sanger sequenced on an ABI model 3130XL genetic analyzer with the following sequencing primers: CaERG11SeqA (5′-[…]-3′), CaERG11SeqB (5′-[…]-3′), CaERG11SeqC (5′-[…]-3′), CaERG11SeqD (5′-[…]-3′), CaERG11SeqE (5′-[…]-3′), and CaERG11SeqF (5′-[…]-3′).
(§2) Azole MICs were determined using the broth microdilution method described by the Clinical Laboratory and Standards Institute ([45], [46]). […] Measurements were read visually at 24 h after incubation at 35°C for a 50% reduction in growth from that in the drug-free control wells. MIC measurements were performed in duplicate, and the MIC was reported as the higher of two values for all strains tested. In cases where the duplicate MIC values were not identical, the higher of the two MIC values is reported. […] Additionally, no MICs differed by more than 2 dilutions for a given strain and drug.

Experiment [4] has as its system C. albicans SC5314 strain with CaCYP51 substitution F145L. Kind of experiment: CLSI broth microdilution MIC. In kind it is cell-based. The conditions noted are these: Candida albicans, RPMI 1640, 24 h, 35°C, 50% reduction in growth.
Excerpt: as §1, §2
On the technique in general: In broth dilution the organism is exposed to a series of concentrations in liquid medium.

Experiment [5] concerns fluconazole-susceptible parent strain SC5314. Kind of experiment: CLSI broth microdilution MIC. It is filed as cell-based. The conditions noted are these: Candida albicans; parent strain SC5314, no substitution; RPMI 1640, 24 h, 35°C, 50% reduction in growth.
Excerpt: as §1, §2

In experiment [6] the test system is C. albicans SC5314 strain with CaCYP51 substitution G450E. Kind of experiment: CLSI broth microdilution MIC. It is filed as cell-based. The conditions noted are these: Candida albicans, RPMI 1640, 24 h, 35°C, 50% reduction in growth.
Excerpt: as §1, §2

The test system of experiment [7] is C. albicans SC5314 strain with CaCYP51 substitution K143R. Kind of experiment: CLSI broth microdilution MIC. In kind it is cell-based. The conditions noted are these: Candida albicans, RPMI 1640, 24 h, 35°C, 50% reduction in growth.
Excerpt: as §1, §2

Experiment [8] concerns C. albicans SC5314 strain with CaCYP51 substitution Y132F+F145L. Kind of experiment: CLSI broth microdilution MIC. It is filed as cell-based. The settings on record: Candida albicans, RPMI 1640, 24 h, 35°C, 50% reduction in growth.
Excerpt: as §1, §2

Experiment [9] has as its system C. albicans SC5314 strain with CaCYP51 substitution G464S. Nature of the experiment: CLSI broth microdilution MIC. In kind it is cell-based. The settings on record: Candida albicans, RPMI 1640, 24 h, 35°C, 50% reduction in growth.
Excerpt: as §1, §2

In experiment [10] the test system is C. albicans SC5314 strain with CaCYP51 substitution Y132F. Nature of the experiment: CLSI broth microdilution MIC. It is filed as cell-based. The conditions noted are these: Candida albicans, RPMI 1640, 24 h, 35°C, 50% reduction in growth.
Excerpt: as §1, §2

For experiment [11], the system named is C. albicans SC5314 strain with CaCYP51 substitution Y132F+K143R. Nature of the experiment: CLSI broth microdilution MIC. In kind it is cell-based. The conditions noted are these: Candida albicans, RPMI 1640, 24 h, 35°C, 50% reduction in growth.
Excerpt: as §1, §2

The subject of experiment [12] is C. albicans SC5314 strain with CaCYP51 substitution G448E. Nature of the experiment: CLSI broth microdilution MIC. The settings on record: for MIC: Candida albicans, SC5314, RPMI 1640, 24 h, 35°C, 50% reduction in growth. In kind it is cell-based, Candida albicans.
Excerpt: as §1, §2

In experiment [13] the test system is C. albicans SC5314 strain with CaCYP51 substitution D278N. Nature of the experiment: CLSI broth microdilution MIC. The settings on record: Candida albicans, RPMI 1640, 24 h, 35°C, 50% reduction in growth. It is filed as cell-based.
Excerpt: as §1, §2

T2 sequence (P10613 whole entry, looked up, stated change not applied): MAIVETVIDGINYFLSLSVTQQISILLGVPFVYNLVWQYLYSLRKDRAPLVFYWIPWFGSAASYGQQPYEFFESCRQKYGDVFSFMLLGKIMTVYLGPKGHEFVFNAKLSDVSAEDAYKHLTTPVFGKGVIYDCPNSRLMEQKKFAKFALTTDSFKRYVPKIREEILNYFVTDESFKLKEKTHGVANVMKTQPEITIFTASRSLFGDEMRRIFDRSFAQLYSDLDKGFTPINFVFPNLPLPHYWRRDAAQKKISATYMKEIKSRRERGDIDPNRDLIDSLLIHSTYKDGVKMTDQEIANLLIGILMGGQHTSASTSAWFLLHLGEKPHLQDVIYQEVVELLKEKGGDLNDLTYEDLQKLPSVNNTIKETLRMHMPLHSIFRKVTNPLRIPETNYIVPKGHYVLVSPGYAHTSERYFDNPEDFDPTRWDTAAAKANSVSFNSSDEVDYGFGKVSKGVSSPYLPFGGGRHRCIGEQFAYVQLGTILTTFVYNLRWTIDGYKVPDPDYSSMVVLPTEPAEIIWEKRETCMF
T1 sequence (P10613 whole entry, looked up, stated change not applied): as above

Turning to `OC(Cn1cncn1)(Cn1cncn1)c1ccc(F)cc1F` [Fluconazole, fluconazole], in experiment [1], inhibition was half-maximal at 194 ± 10 nM (IC50). Further, the “Kd, fold larger than wild-type enzyme” value in [2] is listed as 362 fold. Moreover, the Kd in experiment [2] amounted to 18100 nM. In addition, the MIC in experiment [3] is 2 µg/mL (≈ 6.53 µM); in experiment [4], 4 µg/mL (≈ 13.1 µM); in [5], 1 µg/mL (≈ 3.27 µM); in experiment [6], 16 µg/mL (≈ 52.2 µM); in [7] it was 16 µg/mL (≈ 52.2 µM); in [8], 32 µg/mL (≈ 104 µM). In addition, the MIC in experiment [9] is 8 µg/mL (≈ 26.1 µM); in experiment [10], 8 µg/mL (≈ 26.1 µM); in experiment [11], 32 µg/mL (≈ 104 µM); in experiment [12], 8 µg/mL (≈ 26.1 µM).

Turning to `CCC(C)n1ncn(-c2ccc(N3CCN(c4ccc(OCC5COC(Cn6cncn6)(c6ccc(Cl)cc6Cl)O5)cc4)CC3)cc2)c1=O` (stereo not drawn) [Itraconazole, itraconazole], the remaining activity at 4 µM in [1] amounted to 1.3 ± 0.59%. Moreover, the midpoint of inhibition in [1], the IC50, lay at 170 ± 16 nM. Also, the dissociation constant (Kd) in [2] worked out at 387 ± 117 nM. Besides, the minimal inhibitory concentration (MIC) in experiment [3] is 0.25 µg/mL (≈ 0.354 µM); in experiment [4], 0.25 µg/mL (≈ 0.354 µM); in experiment [5], 0.06 µg/mL (≈ 0.085 µM); in experiment [6], 0.25 µg/mL (≈ 0.354 µM); in experiment [7], 0.5 µg/mL (≈ 0.709 µM); in experiment [13], 0.125 µg/mL (≈ 0.177 µM). Further, the MIC in [8], in [9], in experiment [10], in experiment [11] and in experiment [12] was 0.25 µg/mL (≈ 0.354 µM) throughout.

Take `CC[C@@H]([C@H](C)O)n1ncn(-c2ccc(N3CCN(c4ccc(OC[C@@H]5CO[C@@](Cn6cncn6)(c6ccc(F)cc6F)C5)cc4)CC3)cc2)c1=O` [Posaconazole, posaconazole]: the remaining activity at 4 µM in experiment [1] is 0.46 ± 0.35%. In experiment [1], this compound displayed an IC50 of 206 ± 4 nM. In addition, in [2], the equilibrium dissociation constant (Kd) turned out to be 162 ± 59 nM. The minimal inhibitory concentration (MIC) in experiment [3], in experiment [4], in experiment [5], in experiment [6], in experiment [7] and in [13] was not above 0.03 µg/mL in each case. The minimal inhibitory concentration (MIC) is not above 0.03 µg/mL in [8]; not above 0.03 µg/mL in experiment [9]; not above 0.03 µg/mL in experiment [10]; not above 0.03 µg/mL in experiment [11]; 0.06 µg/mL (≈ 0.0856 µM) in experiment [12]. Moreover, the “fold increase in MIC over SC5314” value in experiment [12] is reported as 2 fold.

For the compound `C[C@@H](c1ncncc1F)[C@](O)(Cn1cncn1)c1ccc(F)cc1F` [Voriconazole, voriconazole], the remaining activity at 4 µM in experiment [1] was found to be 0.28 ± 0.04%. For the same compound, the minimum inhibitory concentration (MIC) in experiment [3] was 0.25 µg/mL (≈ 0.716 µM); in experiment [4], 0.5 µg/mL (≈ 1.43 µM); in [5] it was not above 0.03 µg/mL; in experiment [6], 0.5 µg/mL (≈ 1.43 µM); in experiment [7], 0.5 µg/mL (≈ 1.43 µM); in [13] it was not above 0.03 µg/mL. Also, the MIC was 1 µg/mL (≈ 2.86 µM) in [8]; 0.25 µg/mL (≈ 0.716 µM) in experiment [9]; 0.5 µg/mL (≈ 1.43 µM) in experiment [10]; 1 µg/mL (≈ 2.86 µM) in experiment [11]; 0.25 µg/mL (≈ 0.716 µM) in [12].
